Experimental data taken from patent publication US6677350B1, “Beta-fluoroethyl thiourea compounds and use” (priority 1999, dated 2004).
≈ marks a conversion by molar mass, not a printed value. Read-outs that look alike come from different tables or passages of the source.

How the values were obtained:
[1] = tested on: M. tuberculosis H37Rv (ATCC 27294); assay: In vitro anti-tuberculosis screening, BACTEC 460 radiometric system, percent inhibition of growth; type: cell-based, Mycobacterium tuberculosis; conditions: for inhibition at 12.5 µg/mL: Mycobacterium tuberculosis
Mtb = assay: Actual minimum inhibitory concentration (MIC), lowest concentration inhibiting 99% of the inoculum; type: cell-based, Mycobacterium tuberculosis; conditions: read-out: minimum inhibitory concentration (MIC)
[2] = Mtb H37Rv, 12.5 μg/mL, BACTEC 12B medium, read-out: Activity % inhibition at 12.5 μg/mL (chalcones)
[3] = Mtb H37Rv, drug concentration 12.5 μg/mL, read-out: inhibition of the growth of Mtb
[4] = Mycobacterium tuberculosis, lowest concentration inhibiting 99% of the inoculum
[5] = read-out: Activity % inhibition at 12.5 μg/mL (chalcone-like compounds), Mtb H37Rv, 12.5 μg/mL, BACTEC 12B medium
[6] = read-out: inhibition of the growth of Mtb, Mtb H37Rv, drug concentration 12.5 μg/mL
[7] = Mtb H37Rv, 12.5 μg/mL, BACTEC 12B medium
[8] = Mtb H37Rv, 12.5 μg/mL, BACTEC 12B medium, read-out: Activity % Inhibition at 12.5 μg/mL (biflavonoids)
[9] = Mtb H37Rv, drug concentration 12.5 μg/mL

For `O=C(/C=C/c1cccc(I)c1)c1ccccc1O` [Compound 40, 3-Iodo-2′-hydroxychalcone], the inhibition at 12.5 µg/mL [1, 2] was 92%, the inhibition at 12.5 µg/mL [1, 3] was 92% and the MIC (Mtb; [4]) was greater than 35.7 µM.

`O=C(/C=C/c1cccc(Cl)c1)c1ccccc1O` [Compound 24, 3-Chloro-2′-hydroxychalcone] gave an inhibition at 12.5 µg/mL [1, 2] of 90%, an inhibition at 12.5 µg/mL [1, 3] of 90% and an MIC (Mtb; [4]) of 48.3 µM (≈ 12.5 µg/mL). For the same molecule, the melting point was 108 to 108.5 °C.

Molecule `O=C(C=Cc1cc2ccccc2c2ccccc12)c1cccc(O)c1` [Compound 54, 1-(3-Hydroxyphenyl)-3-phenanthren-9-yl-2-propen-1-one] has an inhibition at 12.5 µg/mL [1, 5] of 97%, an inhibition at 12.5 µg/mL [1, 6] of 97% and an MIC (Mtb; Mycobacterium tuberculosis) of 19.2 µM (≈ 6.23 µg/mL). It also gave a melting point of 212 to 213 °C.

With “1-(5-pyridin-2-yl)-3-(phenanthen-9-yl)-2-propen-1-one [Compound 55]” the “Activity % inhibition at 12.5 μg/mL (chalcone-like compounds)” value [1, 7] was 96% and the MIC (Mtb; lowest concentration inhibiting 99% of the inoculum) was 20.2 µM.

In the case of `COc1ccc(-c2cc(=O)c3c(OC)c(-c4c(OC)cc5oc(-c6ccc(OC)cc6)cc(=O)c5c4OC)c(OC)cc3o2)cc1` [Compound 151, 6,6″-Biapigenin hexamethylether], the inhibition at 12.5 µg/mL [1, 8] is reported as 96%, the inhibition at 12.5 µg/mL [1, 3] is reported as 96% and the MIC (Mtb; [4]) is reported as greater than 20.1 µM. It also gave a melting point of 303 to 304 °C.

For `COc1ccc(Br)c2c1C(=O)CC(c1ccccc1)O2` (stereo not shown) [Compound 133, 5-Methoxy-8-bromo-flavanone], the inhibition at 12.5 µg/mL ([1]; Mtb H37Rv, 12.5 μg/mL, BACTEC 12B medium, read-out: Activity % Inhibition at 12.5 μg/mL (flavanones)) was 87%, the inhibition at 12.5 µg/mL [1, 3] was 87% and the melting point was 134 to 165 °C.

`O=C(C=Cc1ccccc1)c1ccco1` [Compound 56, 1-(Furan-2-yl)-3-phenyl-2-propen-1-one] gave an inhibition at 12.5 µg/mL [1, 5] of 96%, an inhibition at 12.5 µg/mL [1, 6] of 96% and an MIC (Mtb; Mycobacterium tuberculosis) of 31.5 µM (≈ 6.24 µg/mL). The melting point was 94 to 95 °C.

With `O=c1c(Br)c(-c2ccccc2)oc2ccccc12` [Compound 108] the “Activity % Inhibition at 12.5 μg/mL (flavones)” value [1, 7] was 13%.

With `Nc1ccc(C(=O)/C=C/c2cccnc2N)cc1` [Compound 66] the “Activity % inhibition at 12.5 μg/mL (chalcone-like compounds)” value [1, 7] was 7%.

Molecule `O=c1cc(-c2ccc(O)c(-c3c(O)cc4oc(-c5ccc(O)cc5)cc(=O)c4c3O)c2)oc2cc(O)cc(O)c12` [Compound 166, Robustaflavone] has an inhibition at 12.5 µg/mL [1, 8] of 0%.

In the case of `Nc1ccc(C(=O)C=Cc2cccnc2N)cc1` [Compound 73], the “Activity % inhibition at 12.5 μg/mL (chalcone-like compounds)” value [1, 7] is reported as 0%.

For `Nc1ncccc1/C=C/C(=O)c1cc2ccccc2cc1O` [Compound 74], the “Activity % inhibition at 12.5 μg/mL (chalcone-like compounds)” value [1, 7] was 0%.

For `O=c1cc(-c2ccccc2)oc2c(Br)cccc12` [Compound 77], the “Activity % Inhibition at 12.5 μg/mL (flavones)” value [1, 7] was 66%.

For `COc1ccc(C(=O)/C=C/c2cccnc2)cc1` [Compound 71], the “Activity % inhibition at 12.5 μg/mL (chalcone-like compounds)” value [1, 7] was 0%.

For `COc1ccc2c(c1)OC(c1cccc([N+](=O)[O-])c1)CC2=O` (stereo not shown) [Compound 147], the “Activity % Inhibition at 12.5 μg/mL (flavanones)” value [1, 7] was 0%.

In the case of `O=C1CC(c2ccccc2)Oc2cc(I)ccc21` (stereo not shown) [Compound 141], the “Activity % Inhibition at 12.5 μg/mL (flavanones)” value [1, 7] is reported as 9%.

For `O=C(O)c1ccc(O)c(C(=O)C=Cc2cccc(I)c2)c1` [Compound 50], the “Activity % inhibition at 12.5 μg/mL (chalcones)” value [1, 7] was 0% and the “inhibition of the growth of Mtb” value [1, 9] was 0%.

In the case of `O=c1cc(-c2cccc(-c3cccc4c(=O)cc(-c5ccccc5)oc34)c2)oc2ccccc12` [Compound 155, 3′-8′′-Biflavone], the “anti-TB activity in words” value ([1]; Mtb H37Rv, 12.5 μg/mL) is reported as “moderate activity” and the “Activity % Inhibition at 12.5 μg/mL (biflavonoids)” value [1, 7] is reported as 49%.

With `COc1ccccc1C=CC(=O)c1ccccc1O` [Compound 8] the “Activity % inhibition at 12.5 μg/mL (chalcones)” value [1, 7] was 39%.

With `O=C(O)c1ccc2c(c1)C(=O)CC(c1ccccc1)O2` (stereo not shown) [Compound 146] the “Activity % Inhibition at 12.5 μg/mL (flavanones)” value [1, 7] was 0%.

For `COc1ccc(-c2cc(=O)c3cc(I)ccc3o2)cc1` [Compound 107], the “Activity % Inhibition at 12.5 μg/mL (flavones)” value [1, 7] was 15%.

For 6-2′′′-Biapigenin [Compound 158], the “Activity % Inhibition at 12.5 μg/mL (biflavonoids)” value [1, 7] was 1%.

With `COc1ccc(-c2cc(=O)c3ccc(I)cc3o2)cc1` [Compound 128] the “Activity % Inhibition at 12.5 μg/mL (flavones)” value [1, 7] was 0%.

For `COc1ccc(C(=O)/C=C/c2ccco2)c(O)c1` [Compound 65], the “Activity % inhibition at 12.5 μg/mL (chalcone-like compounds)” value [1, 7] was 3%.

For `COc1ccc(/C=C/C(=O)c2c(O)cc(OC)cc2OC)cc1` [Compound 7], the “Activity % inhibition at 12.5 μg/mL (chalcones)” value [1, 7] was 40% and the “inhibition of the growth of Mtb” value [1, 9] was 40%.

`O=C(C=Cc1cccnc1)c1ccc(F)cc1` [Compound 53, 1-(4-Fluorophenyl)-3-(pyridin-3-yl)-2-propen-1-one] showed an inhibition at 12.5 µg/mL [1, 5] of 98%, an inhibition at 12.5 µg/mL [1, 6] of 98% and an MIC (Mtb; Mycobacterium tuberculosis) of 6.8 µM (≈ 1.55 µg/mL). It also gave a melting point of 126 to 127 °C.
